In patent publication US20220218852A1, “NOVEL RADIOLABELLED CXCR4-TARGETING COMPOUNDS FOR DIAGNOSIS AND THERAPY” (PROVINCIAL HEALTH SERVICES AUTHORITY, priority 2019, published 2022):
Like-named read-outs stand apart in the source and are kept apart here. Positions of bridges follow the written chain, without caps; N, C: chain ends. Non-standard residues stand in square brackets, D forms with d. Residues, ends and D or L forms follow the SMILES beside them. Groups on a side chain read outwards from the residue. *: point of attachment. DOTA = O=C(O)CN1CCN(CC(=O)O)CCN(CC(=O)*)CCN(CC(=O)O)CC1; 2Nal = N[C@@H](Cc1ccc2ccccc2c1)C(=O)O; Lys(iPr) = CC(C)NCCCC[C@H](N)C(=O)O

Experiments:
Type in all cases: in vivo
[1] = system: Z138 mantle cell lymphoma xenografts; assay: Biodistribution in Z138 tumor-bearing mice; conditions: 72 h
Method: (§1) For Daudi, Z138, GRANTA519 and Jeko1 xenografts, male NOD.Cg-Rag1^tm1MomII2rg^tm1Wjl/SzJ (NRG) mice were subcutaneously inoculated on the left flank with 5×10^6 cells (100 μL; 1:1 ratio of PBS/Matrigel) and tumors were grown to a size of 200-500 mm^3. For PC-3 xenografts, male NOD.Cg-Rag1^tm1MomII2rg^tm1Wjl/SzJ (NRG) mice were subcutaneously inoculated on the left flank with 5×10^6 PC-3 cells (100 μL; 1:1 ratio of PBS/Matrigel) and tumors were grown to a size of 200-400 mm^3.
(§2) The mice were euthanized via CO2 inhalation while anesthetized with isoflurane. Tissues were harvested, washed in PBS, blotted dry, weighed, and measured on a Hidex AMG Automatic Gamma Counter.

[2] = Biodistribution in GRANTA519 tumor-bearing mice; conditions: male, NOD.Cg-Rag1^tm1MomII2rg^tm1Wjl/SzJ (NRG), mouse, iv, total radioactivity
Method: as §1, §2

[3] = system: GRANTA519 mantle cell lymphoma xenografts; assay: Biodistribution in GRANTA519 tumor-bearing mice
Method: as §1, §2

[4] = GRANTA519 tumour, read-out: Biodistribution GRANTA519 (tumour)
[5] = adrenals, read-out: Biodistribution Adrenals
[6] = bone, read-out: Biodistribution Bone
[7] = fat, read-out: Biodistribution Fat
[8] = intestine, read-out: Biodistribution Intestine
[9] = kidney, read-out: Biodistribution Kidney
[10] = liver, read-out: Biodistribution Liver
[11] = lung, read-out: Biodistribution Lung
[12] = muscle, read-out: Biodistribution Muscle
[13] = pancreas, read-out: Biodistribution Pancreas
[14] = spleen, read-out: Biodistribution Spleen
[15] = stomach, read-out: Biodistribution Stomach
[16] = testes, read-out: Biodistribution Testes
[17] = whole blood, read-out: Biodistribution Blood

## CC(C)NCCCC[C@@H]1NC(=O)[C@H](Cc2ccc(O)cc2)NC(=O)[C@H](Cc2ccccc2)NC(=O)CC[C@H](C(=O)N[C@@H](CCCCNC(C)C)C(=O)N[C@@H](CCCCNC(=O)[C@H](CCC(=O)O)NC(=O)[C@H](CCC(=O)O)NC(=O)[C@H](CCC(=O)O)NC(=O)CN2CCN(CC(=O)O)CCN(CC(=O)O)CCN(CC(=O)O)CC2)C(N)=O)NC(=O)CNC(=O)[C@H](Cc2ccc3ccccc3c2)NC(=O)[C@@H](CCCNC(=N)N)NC1=O [[^177Lu]Lu-BL02, metal not drawn] (FY[Lys(iPr)][dR][2Nal]G[dE][Lys(iPr)]K([Glu-Glu-Glu-DOTA])-NH2; lactam N-7)
[1]
  Ratio Tumour:Bone: 68.39
  Ratio Tumour:Liver: 8.32
  Ratio Tumour:Lung: 21.59
  Ratio Tumour:Muscle: 358.55
  Ratio Tumour:Spleen: 13.86
[2]; GRANTA519 tumour, 1 h, read-out: Biodistribution GRANTA519 (tumour)
  tissue uptake at 1 h: 6.83 %ID/g
[2]; GRANTA519 tumour, 1 h blocked, read-out: Biodistribution GRANTA519 (tumour)
  tissue uptake at 1 h: 0.84 %ID/g
[2]; [4]
  tissue uptake at 4 h: 3.22 %ID/g
  tissue uptake at 24 h: 1.09 %ID/g
  tissue uptake at 72 h: 0.353 %ID/g
[2]; adrenals, 1 h, read-out: Biodistribution Adrenals
  tissue uptake at 1 h: 0.39 %ID/g
[2]; adrenals, 1 h blocked, read-out: Biodistribution Adrenals
  tissue uptake at 1 h: 0.48 %ID/g
[2]; [5]
  tissue uptake at 4 h: 0.1 %ID/g
  tissue uptake at 24 h: 0.094 %ID/g
  tissue uptake at 72 h: 0.346 %ID/g
[2]; bone, 1 h, read-out: Biodistribution Bone
  tissue uptake at 1 h: 0.24 %ID/g
[2]; [6]
  tissue uptake at 4 h: 0.09 %ID/g
  tissue uptake at 24 h: 0.09 %ID/g
  tissue uptake at 72 h: 0.061 %ID/g
[2]; bone, 1 h blocked, read-out: Biodistribution Bone
  tissue uptake at 1 h: 0.41 %ID/g
[2]; fat, 1 h, read-out: Biodistribution Fat
  tissue uptake at 1 h: 0.08 %ID/g
[2]; [7]
  tissue uptake at 4 h: 0.01 %ID/g
  tissue uptake at 24 h: 0.008 %ID/g
  tissue uptake at 72 h: 0.006 %ID/g
[2]; fat, with LY2510924 7.5 μg i.p. 15 min before radiotracer, 1 h blocked, read-out: Biodistribution Fat
  tissue uptake at 1 h: 0.16 %ID/g
[2]; heart, 1 h, read-out: Biodistribution Heart
  tissue uptake at 1 h: 0.19 %ID/g
[2]; heart, 1 h blocked, read-out: Biodistribution Heart
  tissue uptake at 1 h: 0.4 %ID/g
[2]; heart, read-out: Biodistribution Heart
  tissue uptake at 24 h: 0.034 %ID/g
[2]; intestine, 1 h, read-out: Biodistribution Intestine
  tissue uptake at 1 h: 0.28 %ID/g
[2]; intestine, 1 h blocked, read-out: Biodistribution Intestine
  tissue uptake at 1 h: 0.58 %ID/g
[2]; [8]
  tissue uptake at 24 h: 0.046 %ID/g
  tissue uptake at 72 h: 0.017 %ID/g
[2]; kidney, 1 h, read-out: Biodistribution Kidney
  tissue uptake at 1 h: 3.91 %ID/g
[2]; kidney, 1 h blocked, read-out: Biodistribution Kidney
  tissue uptake at 1 h: 8.63 %ID/g
[2]; [9]
  tissue uptake at 4 h: 2.98 %ID/g
  tissue uptake at 24 h: 1.33 %ID/g
  tissue uptake at 72 h: 0.573 %ID/g
[2]; liver, 1 h, read-out: Biodistribution Liver
  tissue uptake at 1 h: 0.96 %ID/g
[2]; [10]
  tissue uptake at 4 h: 0.87 %ID/g
  tissue uptake at 24 h: 0.635 %ID/g
  tissue uptake at 72 h: 0.413 %ID/g
[2]; liver, with LY2510924 7.5 μg i.p. 15 min before radiotracer, 1 h blocked, read-out: Biodistribution Liver
  tissue uptake at 1 h: 1.07 %ID/g
[2]; lung, 1 h, read-out: Biodistribution Lung
  tissue uptake at 1 h: 0.77 %ID/g
[2]; lung, 1 h blocked, read-out: Biodistribution Lung
  tissue uptake at 1 h: 1.16 %ID/g
[2]; [11]
  tissue uptake at 4 h: 0.27 %ID/g
  tissue uptake at 24 h: 0.117 %ID/g
  tissue uptake at 72 h: 0.06 %ID/g
[2]; muscle, 1 h, read-out: Biodistribution Muscle
  tissue uptake at 1 h: 0.13 %ID/g
[2]; muscle, 1 h blocked, read-out: Biodistribution Muscle
  tissue uptake at 1 h: 0.34 %ID/g
[2]; [12]
  tissue uptake at 4 h: 0.04 %ID/g
  tissue uptake at 24 h: 0.015 %ID/g
  tissue uptake at 72 h: 0.007 %ID/g
[2]; pancreas, 1 h, read-out: Biodistribution Pancreas
  tissue uptake at 1 h: 0.17 %ID/g
[2]; [13]
  tissue uptake at 24 h: 0.028 %ID/g
  tissue uptake at 72 h: 0.015 %ID/g
[2]; pancreas, with LY2510924 7.5 μg i.p. 15 min before radiotracer, 1 h blocked, read-out: Biodistribution Pancreas
  tissue uptake at 1 h: 0.3 %ID/g
[2]; spleen, 1 h, read-out: Biodistribution Spleen
  tissue uptake at 1 h: 0.49 %ID/g
[2]; [14]
  tissue uptake at 4 h: 0.28 %ID/g
  tissue uptake at 24 h: 0.321 %ID/g
  tissue uptake at 72 h: 0.198 %ID/g
[2]; spleen, with LY2510924 7.5 μg i.p. 15 min before radiotracer, 1 h blocked, read-out: Biodistribution Spleen
  tissue uptake at 1 h: 0.48 %ID/g
[2]; stomach, 1 h, read-out: Biodistribution Stomach
  tissue uptake at 1 h: 0.1 %ID/g
[2]; [15]
  tissue uptake at 4 h: 0.05 %ID/g
  tissue uptake at 24 h: 0.206 %ID/g
  tissue uptake at 72 h: 0.021 %ID/g
[2]; stomach, with LY2510924 7.5 μg i.p. 15 min before radiotracer, 1 h blocked, read-out: Biodistribution Stomach
  tissue uptake at 1 h: 0.19 %ID/g
[2]; testes, 1 h, read-out: Biodistribution Testes
  tissue uptake at 1 h: 0.21 %ID/g
[2]; testes, 1 h blocked, read-out: Biodistribution Testes
  tissue uptake at 1 h: 0.32 %ID/g
[2]; [16]
  tissue uptake at 24 h: 0.034 %ID/g
  tissue uptake at 72 h: 0.034 %ID/g
[2]; whole blood, 1 h, read-out: Biodistribution Blood
  tissue uptake at 1 h: 0.5 %ID/g
[2]; [17]
  tissue uptake at 4 h: 0.02 %ID/g
  tissue uptake at 24 h: 0.006 %ID/g
  tissue uptake at 72 h: 0.002 %ID/g
[2]; whole blood, with LY2510924 7.5 μg i.p. 15 min before radiotracer, 1 h blocked, read-out: Biodistribution Blood
  tissue uptake at 1 h: 1.14 %ID/g
[3]; 1 h
  Ratio Tumour:Blood: 14.18
  Ratio Tumour:Bone: 28.95
  Ratio Tumour:Liver: 7.10
  Ratio Tumour:Lung: 9.08
  Ratio Tumour:Muscle: 56.86
  Ratio Tumour:Spleen: 14.20
[3]; 1 h blocked
  Ratio Tumour:Blood: 0.77
  Ratio Tumour:Bone: 2.16
  Ratio Tumour:Liver: 0.78
  Ratio Tumour:Lung: 0.74
  Ratio Tumour:Muscle: 3.18
  Ratio Tumour:Spleen: 1.77
[3]; 4 h
  Ratio Tumour:Blood: 119.44
  Ratio Tumour:Bone: 34.26
  Ratio Tumour:Liver: 3.75
  Ratio Tumour:Lung: 12.56
  Ratio Tumour:Muscle: 90.57
  Ratio Tumour:Spleen: 11.98
[3]; 24 h
  Ratio Tumour:Blood: 206.07
  Ratio Tumour:Bone: 12.33
  Ratio Tumour:Liver: 1.72
  Ratio Tumour:Lung: 9.91
  Ratio Tumour:Muscle: 76.90
  Ratio Tumour:Spleen: 3.78
[3]; 72 h
  Ratio Tumour:Blood: 126.69
  Ratio Tumour:Bone: 5.88
  Ratio Tumour:Liver: 0.86
  Ratio Tumour:Lung: 6.60
  Ratio Tumour:Muscle: 50.64
  Ratio Tumour:Spleen: 1.53
